According to patent US20050170485A1, “Culture having phenol oxidase-like activity” (priority 2002, published 2005):

What was measured:
[1] = system: culture of Flammulina velutipes strain IFO 30601; assay: Decolorization / oxidative degradation / oxidative polymerization of pigments and lignin by the culture; type: biochemical; conditions: for reaction of the substrate catalyzed by the culture (in words): neutral conditions; for Specific Activity, Culture: reaction pH 7.0, 25° C., without sign = degradation or decolorization, minus = polymerization activity
Description: The decolorization activity on the respective dyes can be evaluated by measuring as the dye, Evans' Blue, Acid Blue 80, Remazol Brilliant Blue R and Acid Violet 17 in the step c) for their absorbance at 600 nm, 600 nm, 600 nm and 550 nm respectively. In addition, regarding the lignin, the oxidative degradation activity on the respective dyes can be evaluated by measuring the absorbance at 450 nm in the step c). The oxidative polymerization activity on the respective dyes can be evaluated by measuring as the dye, Indigo Carmine and Natural Orange 6 in the step c) for their absorbance at 600 nm and 450 nm respectively.
Next, chemical changes of various substrates generated by the action of the culture for the substrate specificity of the culture obtained in (2) of Example 1 was examined by determining a change in the absorbance of the buffer containing each substrate.
As the substrate, commercially available pigments (Evans' Blue, Acid Blue 80, Remazol Brilliant Blue R, Indigo Carmine, Acid Violet 17, Natural Orange) and lignin (trade name: Lignin Alkali, manufactured by Tokyo Kasei) were used.
(§1) Concretely, 950 μl of 105.3 mM sodium phosphate buffer (pH 7.0) containing a substrate adjusted to have a final concentration as shown in Table 2 was pre-incubated at 25° C. for 5 minutes. Next, 50 μl of the culture solution was added to the resulting product, and thereafter, the mixture was reacted in a cuvette. The absorbance for each substrate was determined at a measuring wavelength with a spectrophotometer (manufactured by Shimadzu Corporation, trade name: UV-2450). For the comparison, the examination was also made for bilirubin oxidase from a strain belonging to the genus Myrothecium in the same manner by replacing the above-mentioned buffer with 105.3 mM Tris-HCl buffer (pH 8.0).
(§2) Here, 1 U (unit) of the activity was defined as an amount for increasing the absorbance by 1 per one minute. In Table 3, a specific activity shown without a sign indicates degradation activity or decolorization activity, and a specific activity shown with—(minus) indicates polymerization activity.

[2] = molecular target: T1, bilirubin oxidase from a strain belonging to the genus Myrothecium (Albifimbria verrucaria, UniProt Q12737); assay: Decolorization / degradation / polymerization of pigments and lignin by bilirubin oxidase (comparison); type: biochemical; conditions: reaction pH 8.0; without sign = degradation or decolorization, minus = polymerization activity
T1 sequence (Q12737 39-572): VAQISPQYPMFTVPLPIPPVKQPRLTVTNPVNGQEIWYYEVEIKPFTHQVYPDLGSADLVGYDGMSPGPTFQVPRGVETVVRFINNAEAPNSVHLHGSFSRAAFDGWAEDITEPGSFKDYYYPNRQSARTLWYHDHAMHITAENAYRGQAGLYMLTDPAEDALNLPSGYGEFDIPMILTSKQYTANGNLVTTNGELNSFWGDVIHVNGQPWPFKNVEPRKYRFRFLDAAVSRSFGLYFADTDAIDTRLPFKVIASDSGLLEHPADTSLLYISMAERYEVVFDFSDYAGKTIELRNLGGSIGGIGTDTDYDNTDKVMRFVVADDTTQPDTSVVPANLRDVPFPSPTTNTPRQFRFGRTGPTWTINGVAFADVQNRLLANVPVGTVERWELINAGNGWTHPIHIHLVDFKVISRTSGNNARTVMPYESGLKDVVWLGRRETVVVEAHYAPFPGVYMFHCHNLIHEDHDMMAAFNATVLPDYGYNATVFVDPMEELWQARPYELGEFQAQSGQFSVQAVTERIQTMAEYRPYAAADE
Experimental: as §1, §2

SMILES	reaction of the substrate catalyzed by the culture (in words) [1]	Specific Activity, Culture [1] [U/mg Protein]	Specific Activity, Bilirubin Oxidase from Strain Belonging to Genus Myrothecium [2] [U/mg Protein]	specificity of the culture compared with bilirubin oxidase from the genus Myrothecium ([1]; Table 3)
O=C1C=C(O)C(=O)c2ccccc21 [Natural Orange 6]	oxidative polymerization reaction	−0.18	−0.11	
Nc1c(S(=O)(=O)[O-])cc(Nc2cccc(S(=O)(=O)CCOS(=O)(=O)[O-])c2)c2c1C(=O)c1ccccc1C2=O.[Na+].[Na+] [Remazol Brilliant Blue R]	strongly catalyzed	0.97	−0.18	significantly differs
